# Test results: patent publication US20160082015A1, “METHODS, COMPOSITIONS AND KITS FOR PROMOTING MOTOR NEURON SURVIVAL AND TREATING AND DIAGNOSING NEURODEGENERATIVE DISORDERS” (PRESIDENT AND FELLOWS OF HARVARD COLLEGE, priority 2013, published 2016)
# Assays:
# SOD1^G93A/HB9::GFP MNs [1] = assay: Mouse MN survival assay, trophic factor withdrawal; format: cell-based; details: for survival of SOD1^G93A/HB9::GFP MNs: trophic factors removed and compound added day 4, fixed day 7
# Description: For the small molecule screen or for standard survival assays, freshly dissociated EBs were plated at a density of 8,000 GFP^+ cells (384-well) or 30.000 GFP+ cells (96-well) per well. Four days later (day 4), trophic factors (BDNF, GDNF and CNTF) were removed, and individual compounds were added to the wells. For the primary screen each was tested at three concentrations (0.1 μM, 1 μM and 10 μM) in duplicate. […] The number of MNs surviving was analyzed by counting the remaining GFP^+ cells in the whole well. Total cell numbers were obtained by counting Hoechst-positive nuclei. A size threshold was set based on control cultures to eliminate apoptotic MNs Unless stated otherwise, survival is measured as fold-increase compared to cultures maintained without trophic factors.
# For long-term MN survival assays, MN cultures were fed with fresh medium and compounds every two days until fixation and quantification as above.
# All primary hits were subsequently tested in a nine-point dose-response assay, using the same screening protocol.
# HB9::GFP MNs = assay: Image analyses of synapses and neurite arborization; format: cell-based, mouse; details: 5 μM
# Description: (§1) For synapse analysis, the inventors quantified imaging data using the PerkinElmer Acapella software spot detection algorithm. Synapses were defined as the overlap of presynaptic and postsynaptic spots on MNs. On each GFP^+ cell, we first drew a circle around the cell body with a diameter of approximately two cell body diameters, similar to that described by Ullian et al. (Schwann cells and astrocytes induce synapse formation by spinal motor neurons in culture. Mol Cell Neurosci., 2004, 25: 241-251) as the area for spot detection. Within each circle, presynaptic sites were detected using a primary antibody against synapsin and a secondary antibody conjugated with Alexa-632. Candidate spots that met an average intensity threshold were accepted as legitimate presynaptic punctac. Then we expanded the radius of each presynaptic puncta by 1 pixel, since the pre- and post-synaptic spots often were slightly offset, especially at higher magnifications, and measured the intensity in the postsynaptic channel, using a PSD95 primary antibody and a secondary antibody conjugated with Alexa-546. Postsynaptic punctae that exceeded the threshold mean intensity threshold were accepted, permitting us to define “colocalized” spots, or synapses.
# (§2) The neurite tracing method in Acapella software is based on methods developed at CSIRO at perkinelmer.com/pages/020/cellularimaging/assaysneuriteoutgrowth.xhtm. The cell bodies of MNs were located by expression of HB9:GFP, and the neurites were also detected by GFP fluorescence. The algorithm measured the lengths and fluorescence intensities of each neurite and the branching level (primary, secondary, etc). The total lengths of neurites and the numbers, lengths and fluorescent intensities of primary and secondary branches were measured based on selected threshold parameters.
# SOD1^G93A/HB9::GFP MNs [2] = assay: as above; format: cell-based, mouse; details: 5 μM
# Description: as §1, §2
# wild-type human SOD1 = assay: SOD1 protein levels by Western blotting; format: cell-based; details: wtSOD1/Hb9::GFP cultures
# Description: In FIG. 5A cultures grown for 21 days in the indicated conditions were analyzed for levels of human SOD1 protein. The antibody used was specific for human SOD1, as is seen by the lack of staining on wild-type mouse MNs (HB9::GFP). When analyzed on day 21, levels of mutant SOD1^G93A protein, but not wt SOD1 protein, were decreased when cells were treated with kenpaullone in the absence of trophic factors. When analyzed on day 21, SOD1^G93A protein, but not wt SOD1 protein, was decreased when cultures were treated with kenpaullone in the presence of trophic factors as well (FIG. 5B). […] By this analysis, again on day 21, the average amount of SOD1 per MN was decreased by kenpaullone treatment in both +TF and −TF conditions. Scale bar represents 50 μm (FIG. 5C). Data are presented as mean±SEM. * p<0.05, *** p<0.001 (Student's t test, two-tailed).
# Since the additional death undergone by the SOD1^G93A/HB9::GFP MNs seems likely to relate to their expression of high levels of SOD1^G93A protein, one possibility is that kenpaullone could act in part by reducing those levels. Kenpaullone was added to cultures on day 4, and the levels of mutant SOD1^G93A protein were analyzed by Western blotting on day 21 (FIGS. 5A and 5B). […] The endogenous mouse SOD1 protein was not affected in either HB9::GFP or SOD1^G93A/HB9::GFP cultures (data not shown). […]
# [3] = system: GSK-3-deficient MN cultures; assay: MN survival using GSK-3 knockout lines; format: cell-based, mouse; details: trophic factors withdrawn
# Description: In these cultures, approximately 70% of Isl+/MAP2+ cells were GFP+(i.e., MNs). However, after trophic factor withdrawal, because MNs die selectively under these conditions, only about 50% of Isl+/MAP2+ cells were GFP+MNs. This means that counting Isl+/MAP2+ cells could overestimate the amount of survival after trophic factor withdrawal by approximately 40%. When deprived of neurotrophins, 35% of wild-type Isl+/MAP2+ cells survived, while 44%, 57% and 54% of Isl+/MAP2+ cells in GSK-3[…]-KO, GSK-3[…]-KO and 3/4-KO cultures survived. Using the correction factor for overcounting surviving MNs, this would mean that wild-type MN survival would be approximately 25%, while the KO MNs would have 31%, 41% and 39% survival, respectively.
# The inventors used another approach to address the issue of GSK-3 and survival. The inventors produced MNs from the following mouse ESC lines: GSK-3α^−/− (GSK-3α-KO), GSK-3^−/− (GSK-3β-KO), and GSK-3α^+/−/GSK-3β^−/− (3/4-KO). Note that ESCs that are GSK-3α^−/−/GSK-3β^−/− were not able to differentiate into neurons (Doble et al., 2007). Cell death was again initiated by withdrawal of trophic factors and the ability of kenpaullone to promote survival was evaluated. […] The inventors validated this staining method using MN cultures prepared from Hb9::GFP ESCs. In these cultures, approximately 70% of Isl^+/MAP2^+ cells were GFP^+ (i.e., MNs). […]
# PAK 4, 5 and 6 = details: cited from earlier work
# [4] = trophic factors removed day 4, analyzed day 21
structure (smiles),measurement,setting,value
O=C1Cc2c([nH]c3ccc(Br)cc23)-c2ccccc2N1 [Kenpaullone],number of SOD1^G93A/HB9::GFP MNs in medium with kenpaullone,"SOD1^G93A/HB9::GFP MNs [1]; complete medium (+TF), day 28",8 times
same,long-term survival of MNs without trophic factors,"SOD1^G93A/HB9::GFP MNs [1]; days 7, 14, 21 and 28",improved survival
same,MN death in complete medium (+TF),SOD1^G93A/HB9::GFP MNs [1]; first two weeks,reduced the death
same,survival of SOD1^G93A/HB9::GFP MNs,SOD1^G93A/HB9::GFP MNs [1],strong effects
same,survival of SOD1^G93A/HB9::GFP MNs,SOD1^G93A/HB9::GFP MNs [1]; listed as kenpaullone,potent survival promoting effects
same,number of synapses per MN,"HB9::GFP MNs; no trophic factors, day 21",dramatic increase
same,neuritic network of MNs,HB9::GFP MNs; [4],maintain the neuritic network of these cells at levels seen in trophic factor supplemented cultures
same,synapses per MN,"SOD1^G93A/HB9::GFP MNs [2]; no trophic factors, day 21",supported their ability to maintain morphological synapses
same,neurite growth of MNs,SOD1^G93A/HB9::GFP MNs [2]; [4],allowing neurite growth beyond that seen in cells kept in trophic factors
same,levels of wild-type human SOD1,wild-type human SOD1,no effect
same,MN survival in GSK-3-deficient cultures,[3],still active
same,"inhibition of PAK 4, 5 and 6","PAK 4, 5 and 6",inhibits
